{"source": "ChEMBL document CHEMBL1159344", "about": "“Natural anti-HIV agents. Part IV. Anti-HIV constituents from Vatica cinerea” (J Nat Prod, 2003)", "key": {"[1]": {"test": "Selectivity index, ratio of CC50 for HOG.R5 cells to IC50 for HIV1 3B", "format": "functional"}, "[2]": {"test": "Cytotoxicity against human HOG.R5 cells", "format": "cell-based"}, "[3]": {"test_system": "Human immunodeficiency virus 1", "test": "Antiviral activity against HIV1 3B infected in human HOG.R5 assessed as inhibition of viral replication by microtiter assay", "format": "functional, organism-based", "conditions": "Human immunodeficiency virus 1, 3B"}, "[4]": {"test_system": "Human immunodeficiency virus 1", "test": "Antiviral activity against HIV1 3B infected in human HOG.R5 assessed as inhibition of viral replication at 20 ug/ml by microtiter assay", "format": "functional", "conditions": "Human immunodeficiency virus 1, 3B"}, "[5]": {"test": "Cytotoxicity against human HOG.R5 cells at 20 ug/ml", "format": "cell-based"}, "[6]": {"test_system": "Human immunodeficiency virus 1", "test": "Antiviral activity against HIV1 3B infected in human HOG.R5 assessed as inhibition of viral replication at 2.5 ug/ml by microtiter assay", "format": "functional", "conditions": "Human immunodeficiency virus 1, 3B"}}, "data": [{"smiles": "CC(=O)/C=C/C[C@@H](C)[C@H]1CC[C@@]2(C)[C@@H]3CC[C@H]4C(C)(C)C(=O)CC[C@@]45C[C@@]35CC[C@]12C", "note": "[VATICINONE]", "values": [{"measurement": "Ratio CC50/IC50", "setting": "[1]", "result": 1.4}, {"measurement": "CC50", "setting": "[2]", "result": 21.5, "unit": "µM"}, {"measurement": "IC50", "setting": "[3]", "result": 15.3, "unit": "µM"}]}, {"smiles": "C=C(C)[C@@H]1CC[C@]2(CO)CC[C@]3(C)[C@H](CC[C@@H]4[C@@]5(C)CC[C@H](O)C(C)(C)[C@@H]5CC[C@]43C)[C@@H]12", "note": "[BETULIN]", "values": [{"measurement": "Ratio CC50/IC50", "setting": "[1]", "result": 1.4}, {"measurement": "CC50", "setting": "[2]", "result": 19.5, "unit": "µM"}, {"measurement": "IC50", "setting": "[3]", "result": 13.8, "unit": "µM"}]}, {"smiles": "C=C(C/C=C/C(C)(C)O)[C@H]1CC[C@]2(C)[C@@H]1CC[C@@H]1[C@@]3(C)CC[C@H](O)C(C)(C)[C@@H]3CC[C@]12C", "values": [{"measurement": "Ratio CC50/IC50", "setting": "[1]", "result": 1.3}, {"measurement": "CC50", "setting": "[2]", "result": 30.3, "unit": "µM"}, {"measurement": "IC50", "setting": "[3]", "result": 22.6, "unit": "µM"}]}, {"smiles": "C=Cc1c(C)c2cc3nc(c4c5[nH]c(cc6nc(cc1[nH]2)C(C)=C6CC)c(C)c5C(=O)[C@@H]4C(=O)OC)[C@@H](CCC(=O)O)[C@@H]3C", "note": "[PHEOPHORBIDE A]", "values": [{"measurement": "Ratio CC50/IC50", "setting": "[1]", "result": ">13"}, {"measurement": "CC50", "setting": "[2]", "result": 33.8, "unit": "µM"}, {"measurement": "IC50", "setting": "[3]", "result": 2.5, "unit": "µM"}]}, {"smiles": "CC(CCC[C@@H](C)[C@H]1CC[C@@]2(C)[C@@H]3CC[C@H]4C(C)(C)C(=O)CC[C@@]45C[C@@]35CC[C@]12C)C(=O)O", "note": "(stereo partly specified) [DIHYDROSCHIZANDRONIC ACID]", "values": [{"measurement": "inhibition at 20 µg/mL", "setting": "[4]", "result": 0, "unit": "%"}, {"measurement": "Activity", "setting": "[5]", "result": "Non-toxic"}, {"measurement": "CC50", "setting": "[2]", "result": 43.9, "unit": "µM"}, {"measurement": "IC50", "setting": "[3]", "result": 43.9, "unit": "µM"}]}, {"smiles": "CC1=C2[C@@H]3[C@H](CC[C@H](C)[C@]2(O)CC1=O)C3(C)C", "values": [{"measurement": "Ratio CC50/IC50", "setting": "[1]", "result": ">1"}, {"measurement": "Activity", "setting": "[5]", "result": "Non-toxic"}, {"measurement": "CC50", "setting": "[2]", "result": 85.5, "unit": "µM"}, {"measurement": "IC50", "setting": "[3]", "result": 88, "unit": "µM"}]}, {"smiles": "C=C(CC[C@H](O)C(=C)C)[C@H]1CC[C@]2(C)[C@@H]1CC[C@@H]1[C@@]3(C)CC[C@H](O)C(C)(C)[C@@H]3CC[C@]12C", "values": [{"measurement": "Ratio CC50/IC50", "setting": "[1]", "result": 2.3}, {"measurement": "CC50", "setting": "[2]", "result": 14.3, "unit": "µM"}, {"measurement": "IC50", "setting": "[3]", "result": 6.1, "unit": "µM"}]}, {"smiles": "C=C(C)[C@@H]1CC[C@]2(C(=O)O)CC[C@]3(C)[C@H](CC[C@@H]4[C@@]5(C)CCC(=O)C(C)(C)[C@@H]5CC[C@]43C)[C@@H]12", "note": "[BETUNOLIC ACID]", "values": [{"measurement": "CC50", "setting": "[2]", "result": 105, "unit": "µM"}, {"measurement": "IC50", "setting": "[3]", "result": 21.4, "unit": "µM"}]}, {"smiles": "C/C(=C\\CC[C@@H](C)[C@H]1CC[C@@]2(C)C3=C(CC[C@]12C)[C@@]1(C)CCC(=O)C(C)(C)[C@@H]1CC3)C(=O)O", "values": [{"measurement": "Ratio CC50/IC50", "setting": "[1]", "result": 1.7}, {"measurement": "CC50", "setting": "[2]", "result": 14.8, "unit": "µM"}, {"measurement": "IC50", "setting": "[3]", "result": 8.6, "unit": "µM"}]}, {"smiles": "C/C(=C\\CC[C@@H](C)[C@H]1CC[C@@]2(C)[C@@H]3CC[C@H]4C(C)(C)C(=O)CC[C@@]45C[C@@]35CC[C@]12C)C(=O)O", "note": "[MANGIFERONIC ACID]", "values": [{"measurement": "inhibition at 20 µg/mL", "setting": "[4]", "result": 19, "unit": "%"}, {"measurement": "Activity", "setting": "[5]", "result": "Non-toxic"}, {"measurement": "CC50", "setting": "[2]", "result": 44.1, "unit": "µM"}, {"measurement": "IC50", "setting": "[3]", "result": 44.1, "unit": "µM"}]}, {"smiles": "CC1(C)CC[C@]2(CO)CC[C@]3(C)C(=CC[C@@H]4[C@@]5(C)CC[C@H](O)C(C)(C)[C@@H]5CC[C@]43C)[C@@H]2C1", "note": "[ERYTHRODIOL]", "values": [{"measurement": "Ratio CC50/IC50", "setting": "[1]", "result": ">1"}, {"measurement": "inhibition at 20 µg/mL", "setting": "[4]", "result": 33, "unit": "%"}, {"measurement": "Activity", "setting": "[5]", "result": "Non-toxic"}, {"measurement": "CC50", "setting": "[2]", "result": 45.2, "unit": "µM"}, {"measurement": "IC50", "setting": "[3]", "result": 45.2, "unit": "µM"}]}, {"smiles": "CC(=O)/C=C/C[C@@H](C)[C@H]1CC[C@@]2(C)[C@@H]3CC[C@H]4C(C)(C)[C@@H](O)CC[C@@]45C[C@@]35CC[C@]12C", "values": [{"measurement": "CC50", "setting": "[2]", "result": 12.7, "unit": "µM"}, {"measurement": "IC50", "setting": "[3]", "result": 5.9, "unit": "µM"}, {"measurement": "inhibition at 2.5 µg/mL", "setting": "[6]", "result": 21, "unit": "%"}]}, {"smiles": "C=C(C)[C@@H]1CC[C@]2(C(=O)O)CC[C@]3(C)[C@H](CC[C@@H]4[C@@]5(C)CC[C@H](O)C(C)(C)[C@@H]5CC[C@]43C)[C@@H]12", "note": "[BETULINIC ACID]", "values": [{"measurement": "Ratio CC50/IC50", "setting": "[1]", "result": 1.1}, {"measurement": "CC50", "setting": "[2]", "result": 36, "unit": "µM"}, {"measurement": "IC50", "setting": "[3]", "result": 32.5, "unit": "µM"}]}, {"smiles": "C[C@H]1[C@H](C)CC[C@]2(C(=O)O)CC[C@]3(C)C(=CC[C@@H]4[C@@]5(C)CC[C@H](O)C(C)(C)[C@@H]5CC[C@]43C)[C@H]12", "note": "[URSOLIC ACID]", "values": [{"measurement": "Ratio CC50/IC50", "setting": "[1]", "result": 4.9}, {"measurement": "CC50", "setting": "[2]", "result": 15.8, "unit": "µM"}, {"measurement": "IC50", "setting": "[3]", "result": 14.7, "unit": "µM"}]}]}
